Test results: the NIST ThermoML archive (doi:10.1021/je050414d)

Assay: xn = mol fraction of the nth substance listed
Conditions: 101 kPa, Liquid; for viscosity: Capillary tube (Ostwald / Ubbelohde) method

CCOC(=O)OCC [diethyl carbonate] + CC(C)O
Conditions | mass density [kg/m3] | viscosity [mPa·s]
293.15 K, x1 = 0.1015 | 812.95 | 1.586
293.15 K, x1 = 0.1993 | 837.12 | 1.252
293.15 K, x1 = 0.3027 | 861.52 | 1.073
293.15 K, x1 = 0.4029 | 880.88 | 0.946
293.15 K, x1 = 0.5018 | 901.57 | 0.865
293.15 K, x1 = 0.5905 | 914.48 | 0.827
293.15 K, x1 = 0.7267 | 936.22 | 0.791
293.15 K, x1 = 0.8053 | 947.93 | 0.781
293.15 K, x1 = 0.8494 | 954.32 | 0.782
293.15 K, x1 = 1 | 975 | 0.8
298.15 K, x1 = 0.1015 | 808.12 | 1.393
298.15 K, x1 = 0.1993 | 831.98 | 1.119
298.15 K, x1 = 0.3027 | 855.03 | 0.964
298.15 K, x1 = 0.4029 | 875.34 | 0.86
298.15 K, x1 = 0.5018 | 893.55 | 0.791
298.15 K, x1 = 0.5905 | 908.68 | 0.76
298.15 K, x1 = 0.7267 | 930.3 | 0.731
298.15 K, x1 = 0.8053 | 941.94 | 0.726
298.15 K, x1 = 0.8494 | 948.31 | 0.726
298.15 K, x1 = 1 | 968.97 | 0.746
303.15 K, x1 = 0.1015 | 803.27 | 1.223
303.15 K, x1 = 0.1993 | 826.84 | 0.996
303.15 K, x1 = 0.3027 | 849.57 | 0.867
303.15 K, x1 = 0.4029 | 869.48 | 0.782
303.15 K, x1 = 0.5018 | 887.62 | 0.726
303.15 K, x1 = 0.5905 | 902.71 | 0.7
303.15 K, x1 = 0.7267 | 924.09 | 0.677
303.15 K, x1 = 0.8053 | 935.6 | 0.674
303.15 K, x1 = 0.8494 | 941.89 | 0.676
303.15 K, x1 = 1 | 962.39 | 0.695
313.15 K, x1 = 0.1015 | 793.12 | 0.964
313.15 K, x1 = 0.1993 | 816.46 | 0.806
313.15 K, x1 = 0.3027 | 839.13 | 0.716
313.15 K, x1 = 0.4029 | 859.2 | 0.657
313.15 K, x1 = 0.5018 | 877.18 | 0.618
313.15 K, x1 = 0.5905 | 892.18 | 0.601
313.15 K, x1 = 0.7267 | 913.63 | 0.588
313.15 K, x1 = 0.8053 | 925.25 | 0.588
313.15 K, x1 = 0.8494 | 931.59 | 0.59
313.15 K, x1 = 1 | 952.32 | 0.61
323.15 K, x1 = 0.1015 | 781.71 | 0.78
323.15 K, x1 = 0.1993 | 804.58 | 0.668
323.15 K, x1 = 0.3027 | 826.95 | 0.604
323.15 K, x1 = 0.4029 | 846.73 | 0.562
323.15 K, x1 = 0.5018 | 864.62 | 0.535
323.15 K, x1 = 0.5905 | 879.49 | 0.524
323.15 K, x1 = 0.7267 | 900.94 | 0.517
323.15 K, x1 = 0.8053 | 912.58 | 0.519
323.15 K, x1 = 0.8494 | 918.93 | 0.521
323.15 K, x1 = 1 | 939.78 | 0.541
333.15 K, x1 = 0.1015 | 771.12 | 0.637
333.15 K, x1 = 0.1993 | 793.64 | 0.559
333.15 K, x1 = 0.3027 | 815.77 | 0.515
333.15 K, x1 = 0.4029 | 835.41 | 0.485
333.15 K, x1 = 0.5018 | 853.29 | 0.467
333.15 K, x1 = 0.5905 | 868.1 | 0.46
333.15 K, x1 = 0.7267 | 889.56 | 0.458
333.15 K, x1 = 0.8053 | 901.29 | 0.461
333.15 K, x1 = 0.8494 | 907.67 | 0.464
333.15 K, x1 = 1 | 928.69 | 0.483
343.15 K, x1 = 0.1015 | 760.13 | 0.523
343.15 K, x1 = 0.1993 | 782.3 | 0.47
343.15 K, x1 = 0.3027 | 804.17 | 0.44
343.15 K, x1 = 0.4029 | 823.53 | 0.421
343.15 K, x1 = 0.5018 | 841.14 | 0.41
343.15 K, x1 = 0.5905 | 855.92 | 0.407
343.15 K, x1 = 0.7267 | 877.3 | 0.409
343.15 K, x1 = 0.8053 | 888.96 | 0.413
343.15 K, x1 = 0.8494 | 895.36 | 0.417
343.15 K, x1 = 1 | 916.33 | 0.435

CCOC(=O)OCC [diethyl carbonate] + CO
Conditions | mass density [kg/m3] | viscosity [mPa·s]
293.15 K, x1 = 0.1045 | 839.93 | 0.599
293.15 K, x1 = 0.2128 | 874.69 | 0.622
293.15 K, x1 = 0.2835 | 892.08 | 0.634
293.15 K, x1 = 0.4025 | 915.12 | 0.655
293.15 K, x1 = 0.5161 | 932.04 | 0.679
293.15 K, x1 = 0.6057 | 942.83 | 0.7
293.15 K, x1 = 0.7015 | 952.67 | 0.723
293.15 K, x1 = 0.8 | 961.18 | 0.747
293.15 K, x1 = 0.8845 | 967.44 | 0.772
293.15 K, x1 = 1 | 975 | 0.801
298.15 K, x1 = 0.1045 | 834.64 | 0.567
298.15 K, x1 = 0.2128 | 869.33 | 0.588
298.15 K, x1 = 0.2835 | 886.65 | 0.598
298.15 K, x1 = 0.4025 | 909.56 | 0.616
298.15 K, x1 = 0.5161 | 926.35 | 0.637
298.15 K, x1 = 0.6057 | 937.11 | 0.656
298.15 K, x1 = 0.7015 | 946.89 | 0.677
298.15 K, x1 = 0.8 | 955.37 | 0.696
298.15 K, x1 = 0.8845 | 961.65 | 0.715
298.15 K, x1 = 1 | 968.97 | 0.746
303.15 K, x1 = 0.1045 | 829.8 | 0.527
303.15 K, x1 = 0.2128 | 864.12 | 0.546
303.15 K, x1 = 0.2835 | 881.42 | 0.556
303.15 K, x1 = 0.4025 | 904.25 | 0.573
303.15 K, x1 = 0.5161 | 921 | 0.593
303.15 K, x1 = 0.6057 | 931.74 | 0.611
303.15 K, x1 = 0.7015 | 941.49 | 0.63
303.15 K, x1 = 0.8 | 949.97 | 0.651
303.15 K, x1 = 0.8845 | 956.23 | 0.671
303.15 K, x1 = 1 | 962.39 | 0.695
313.15 K, x1 = 0.1045 | 819.68 | 0.462
313.15 K, x1 = 0.2128 | 853.64 | 0.48
313.15 K, x1 = 0.2835 | 870.71 | 0.49
313.15 K, x1 = 0.4025 | 893.3 | 0.503
313.15 K, x1 = 0.5161 | 909.94 | 0.521
313.15 K, x1 = 0.6057 | 920.59 | 0.537
313.15 K, x1 = 0.7015 | 930.26 | 0.556
313.15 K, x1 = 0.8 | 938.67 | 0.572
313.15 K, x1 = 0.8845 | 944.93 | 0.587
313.15 K, x1 = 1 | 952.32 | 0.61
323.15 K, x1 = 0.1045 | 809.45 | 0.408
323.15 K, x1 = 0.2128 | 843 | 0.424
323.15 K, x1 = 0.2835 | 859.86 | 0.432
323.15 K, x1 = 0.4025 | 882.25 | 0.444
323.15 K, x1 = 0.5161 | 898.72 | 0.461
323.15 K, x1 = 0.6057 | 909.28 | 0.477
323.15 K, x1 = 0.7015 | 918.88 | 0.493
323.15 K, x1 = 0.8 | 927.24 | 0.507
323.15 K, x1 = 0.8845 | 933.43 | 0.523
323.15 K, x1 = 1 | 939.78 | 0.541
333.15 K, x1 = 0.1045 | 796.31 | 0.363
333.15 K, x1 = 0.2128 | 830.09 | 0.376
333.15 K, x1 = 0.2835 | 847.11 | 0.384
333.15 K, x1 = 0.4025 | 869.76 | 0.397
333.15 K, x1 = 0.5161 | 886.44 | 0.41
333.15 K, x1 = 0.6057 | 897.15 | 0.426
333.15 K, x1 = 0.7015 | 906.9 | 0.441
333.15 K, x1 = 0.8 | 915.39 | 0.454
333.15 K, x1 = 0.8845 | 921.71 | 0.466
333.15 K, x1 = 1 | 928.69 | 0.483
